Experimental data as given in patent US20260297081A1, “COMPOUNDS AND METHODS OF TREATING CANCERS” (Cullgen Inc., priority 2023, published 2026).

Assays:
Type in all cases: cell-based
MCF7 cells = experiment: Anti-proliferation (viability) of MCF7 cells (Table 7, FIG. 2B); conditions: Homo sapiens, MCF7, MCF7 cells, 3-6 days, 10-point serial dilution; read-out: GI IC50 in MCF-7
CDK4 [1] = biological target: T1, CDK4 (Homo sapiens, UniProt P11802+Q16531); experiment: CDK4 percentage degradation in Calu-1 cells (Table 6); parameters: Cells that express cyclin D1-3 and CDK4/6 proteins were treated with heterobifunctional compounds; endogenous in cells; host or cells: Calu-1; conditions: 16 hours
Outline: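 Calu-1 cells exposed to heterobifunctional compounds at 40 nM or 200 nM for 16 h. Cyclin D1 and CDK4 levels measured by Western blot of RIPA lysates (BCA-normalised loading), bands quantified by densitometry and expressed as percentage degradation.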
Target sequence in this assay (P11802 2-303 limits assumed): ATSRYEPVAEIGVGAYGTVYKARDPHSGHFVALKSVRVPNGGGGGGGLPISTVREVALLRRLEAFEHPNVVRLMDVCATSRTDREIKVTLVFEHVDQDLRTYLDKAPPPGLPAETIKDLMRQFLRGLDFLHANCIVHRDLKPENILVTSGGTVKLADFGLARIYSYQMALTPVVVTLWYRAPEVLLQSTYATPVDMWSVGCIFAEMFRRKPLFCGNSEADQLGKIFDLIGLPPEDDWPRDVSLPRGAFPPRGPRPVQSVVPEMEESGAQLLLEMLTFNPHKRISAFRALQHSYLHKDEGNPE
Target sequence in this assay (P24385 whole entry partner): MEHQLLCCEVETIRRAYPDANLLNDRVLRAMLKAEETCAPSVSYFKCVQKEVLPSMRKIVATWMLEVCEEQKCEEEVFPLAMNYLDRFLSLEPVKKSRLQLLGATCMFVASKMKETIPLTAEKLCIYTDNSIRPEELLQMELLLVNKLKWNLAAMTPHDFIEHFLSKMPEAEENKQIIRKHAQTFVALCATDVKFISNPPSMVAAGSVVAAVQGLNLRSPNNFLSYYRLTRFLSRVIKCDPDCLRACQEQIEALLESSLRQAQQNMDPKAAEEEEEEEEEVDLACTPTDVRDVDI
Target sequence in this assay (Q16531 2-1140 limits assumed): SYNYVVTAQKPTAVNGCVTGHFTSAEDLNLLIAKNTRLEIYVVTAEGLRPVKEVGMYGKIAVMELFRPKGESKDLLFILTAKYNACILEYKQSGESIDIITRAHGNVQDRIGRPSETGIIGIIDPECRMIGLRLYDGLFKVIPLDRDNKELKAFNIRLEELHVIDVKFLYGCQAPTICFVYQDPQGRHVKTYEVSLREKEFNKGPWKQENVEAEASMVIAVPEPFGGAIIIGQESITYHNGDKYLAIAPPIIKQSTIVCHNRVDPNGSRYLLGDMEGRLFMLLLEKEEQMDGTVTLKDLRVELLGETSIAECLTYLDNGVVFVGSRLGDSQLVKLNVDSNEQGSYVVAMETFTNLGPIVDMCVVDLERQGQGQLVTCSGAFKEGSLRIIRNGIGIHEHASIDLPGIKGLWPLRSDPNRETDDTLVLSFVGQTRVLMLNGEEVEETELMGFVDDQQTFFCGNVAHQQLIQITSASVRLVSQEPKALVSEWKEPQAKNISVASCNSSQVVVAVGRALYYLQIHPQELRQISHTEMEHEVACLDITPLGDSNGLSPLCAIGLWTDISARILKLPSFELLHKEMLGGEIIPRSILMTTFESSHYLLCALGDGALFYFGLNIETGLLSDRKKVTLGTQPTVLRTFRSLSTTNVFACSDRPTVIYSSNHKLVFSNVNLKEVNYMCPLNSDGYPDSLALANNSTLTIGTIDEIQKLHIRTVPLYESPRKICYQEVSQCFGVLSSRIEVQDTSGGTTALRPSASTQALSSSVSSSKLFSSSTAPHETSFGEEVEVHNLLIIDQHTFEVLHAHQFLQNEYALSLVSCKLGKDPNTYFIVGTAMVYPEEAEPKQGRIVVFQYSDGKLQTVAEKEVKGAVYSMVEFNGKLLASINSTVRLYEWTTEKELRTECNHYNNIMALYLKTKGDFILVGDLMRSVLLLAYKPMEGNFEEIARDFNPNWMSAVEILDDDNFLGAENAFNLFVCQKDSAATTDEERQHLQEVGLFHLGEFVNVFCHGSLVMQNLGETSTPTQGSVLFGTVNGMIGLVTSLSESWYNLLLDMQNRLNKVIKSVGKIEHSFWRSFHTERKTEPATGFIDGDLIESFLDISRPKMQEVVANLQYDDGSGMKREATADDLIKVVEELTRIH

CDK4 [2] = biological target: T1, CDK4; experiment: HiBiT detection of HiBiT-tagged CDK4 protein level in MCF7 cells, 16 hours (Table 8); parameters: expressed in transfected cells; host or cells: MCF7; conditions: MCF7 cells stably expressing HiBiT tagged target proteins
Experimental: HiBiT detection system quantitatively measures total amounts of HiBiT-tagged proteins using a luminescent based method. MCF7 cells stably expressing HiBiT tagged target proteins were treated with heterobifunctional compounds at indicated concentrations for 16 hours, then lysed with Nano-Glo HiBiT Lytic detection reagents.
Target sequence in this assay (P11802 whole entry): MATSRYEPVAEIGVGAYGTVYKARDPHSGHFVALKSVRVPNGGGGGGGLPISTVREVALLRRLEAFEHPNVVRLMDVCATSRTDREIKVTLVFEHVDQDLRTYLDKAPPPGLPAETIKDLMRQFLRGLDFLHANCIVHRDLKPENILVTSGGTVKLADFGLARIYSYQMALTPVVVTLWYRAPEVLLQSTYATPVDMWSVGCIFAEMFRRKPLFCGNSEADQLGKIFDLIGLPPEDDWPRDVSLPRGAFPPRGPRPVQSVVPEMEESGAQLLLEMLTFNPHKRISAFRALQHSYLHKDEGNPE
Target sequence in this assay (P24385 whole entry partner): as the sequence (P24385 whole entry partner) above
Target sequence in this assay (Q16531 2-1140 limits assumed): as the sequence (Q16531 2-1140 limits assumed) above

Calu-1 cells = experiment: Anti-proliferation (viability) of NSCLC Calu-1 cells, 3 days (Table 7, FIG. 2B); conditions: Homo sapiens, 72 h; Calu-1 cells, 3 days, 10-point serial dilution; read-out: GI IC50 in Calu-1
Experimental: To evaluate anti-proliferation activities of heterobifunctional compounds, NSCLC Calu-1 or ER+ breast cancer T47D cells were treated with selected heterobifunctional compounds following a 10-point serial dilution for 3 or 6 days, respectively.
To verify that heterobifunctional compound-mediated degradation is dependent on the binding to CDK4-cyclin D complex, a negative control compound, CPD-143, which is derived from active heterobifunctional compound CPD-10 was designed. CPD-143 bears the same DDB1 ligand and linker as CPD-10 but with a modified warhead to impair the binding of the control compound to CDK4.

Work on `[2H]C([2H])([2H])Nc1ccc(C(=O)Nc2ccc(N(C)C)nn2)c(NC2CC3(C2)CN(C(=O)CN2CCC4(CCN(c5ccc(Nc6ncc7c(C)c(C(C)=O)c(=O)n(C8CCCC8)c7n6)nc5)C4)C2)C3)n1` (stereo not drawn) [CPD-384, 2-((2-(2-(7-(6-((6-acetyl-8-cyclopentyl-5-methyl-7-oxo-7,8-dihydropyrido[2,3-d]pyrimidin-2-yl)amino)pyridin-3-yl)-2,7-diazaspiro[4.4]nonan-2-yl)acetyl)-2-azaspiro[3.3]heptan-6-yl)amino)-N-(6-(dimethylamino)pyridazin-3-yl)-6-((methyl-d3)amino)nicotinamide] yielded an IC50 (MCF7 cells) of under 50 nM, an inhibition at 0.04 µM (CDK4 [1]; 40 nM) of under 30% and an inhibition at 0.2 µM (CDK4 [1]; 200 nM) of under 30%. It also gave an activity at 0.01 µM (CDK4 [2]; 10 nM, read-out: % CDK4 Relative Level (10 nM)) of 55 to 85% and an activity at 0.1 µM (CDK4 [2]; 100 nM, read-out: % CDK4 Relative Level (100 nM)) of 55 to 85%.

Work on `CC(=O)c1c(C)c2cnc(Nc3ccc(CN4CCN(CC(=O)NCC56CC(Nc7nc(NC(C)C)ccc7C(=O)Nc7ccc(N(C)C)nn7)(C5)C6)CC4)cn3)nc2n(C2CCCC2)c1=O` [CPD-479, 2-((3-((2-(4-((6-((6-acetyl-8-cyclopentyl-5-methyl-7-oxo-7,8-dihydropyrido[2,3-d]pyrimidin-2-yl)amino)pyridin-3-yl)methyl)piperazin-1-yl)acetamido)methyl)bicyclo[1.1.1]pentan-1-yl)amino)-N-(6-(dimethylamino)pyridazin-3-yl)-6-(isopropylamino)nicotinamide] yielded an IC50 (Calu-1 cells) of at most 10 nM.

`[2H]C([2H])([2H])Nc1ccc(C(=O)Nc2cn(C)c(C3CC3)n2)c(N[C@H]2CC[C@H](C(=O)N3CCC(N4CCN(c5ccc(Nc6ncc7c(C)c(C(C)=O)c(=O)n(C8CCCC8)c7n6)nc5)CC4)C3)CC2)n1` (stereo partly drawn) [CPD-480, 2-((4-(3-(4-(6-((6-acetyl-8-cyclopentyl-5-methyl-7-oxo-7,8-dihydropyrido[2,3-d]pyrimidin-2-yl)amino)pyridin-3-yl)piperazin-1-yl)pyrrolidine-1-carbonyl)cyclohexyl)amino)-N-(2-cyclopropyl-1-methyl-1H-imidazol-4-yl)-6-((methyl-d3)amino)nicotinamide] was tested, and the IC50 (Calu-1 cells) was 10 to 50 nM.

`CC(=O)c1c(C)c2cnc(Nc3ccc(N4CCN(C5CCN(C(=O)NC6CCC(Nc7nc(NC(C)C)ccc7C(=O)Nc7ccc(N(C)C)nn7)CC6)C5)CC4)cn3)nc2n(C2CCCC2)c1=O` (stereo not drawn) [CPD-483, 2-((4-(3-(4-(6-((6-acetyl-8-cyclopentyl-5-methyl-7-oxo-7,8-dihydropyrido[2,3-d]pyrimidin-2-yl)amino)pyridin-3-yl)piperazin-1-yl)pyrrolidine-1-carboxamido)cyclohexyl)amino)-N-(6-(dimethylamino)pyridazin-3-yl)-6-(isopropylamino)nicotinamide] was tested, and the IC50 (Calu-1 cells) was at least 50 nM.

For `CC(=O)c1c(C)c2cnc(Nc3ccc(N4CC5(CC(N(C)CC(=O)N6CCC(Nc7nc(NC(C)C)ccc7C(=O)Nc7ccc(N(C)C)nn7)CC6)C5)C4)cn3)nc2n(C2CCCC2)c1=O` [CPD-484, 2-((1-(N-(2-(6-((6-acetyl-8-cyclopentyl-5-methyl-7-oxo-7,8-dihydropyrido[2,3-d]pyrimidin-2-yl)amino)pyridin-3-yl)-2-azaspiro[3.3]heptan-6-yl)-N-methylglycyl)piperidin-4-yl)amino)-N-(6-(dimethylamino)pyridazin-3-yl)-6-(isopropylamino)nicotinamide], the IC50 (Calu-1 cells) was 10 to 50 nM.

`CC(=O)c1c(C)c2cnc(Nc3ccc(N4CCC5(CCN(CC(=O)NCC67CC(Nc8nc(NC(C)C)ccc8C(=O)Nc8ccc(N(C)C)nn8)(C6)C7)C5)C4)cn3)nc2n(C2CCCC2)c1=O` (stereo not drawn) [CPD-485, 2-((3-((2-(7-(6-((6-acetyl-8-cyclopentyl-5-methyl-7-oxo-7,8-dihydropyrido[2,3-d]pyrimidin-2-yl)amino)pyridin-3-yl)-2,7-diazaspiro[4.4]nonan-2-yl)acetamido)methyl)bicyclo[1.1.1]pentan-1-yl)amino)-N-(6-(dimethylamino)pyridazin-3-yl)-6-(isopropylamino)nicotinamide] showed an IC50 (Calu-1 cells) of at most 10 nM.

In the case of `[2H]C([2H])([2H])Nc1ccc(C(=O)Nc2ccc(N(C)C)nn2)c(NC2CC3(C2)CN(C(=O)CN2CC4(C2)CN(c2ccc(Nc5ncc6c(C)c(C(C)=O)c(=O)n(C7CCCC7)c6n5)nc2)C4)C3)n1` [CPD-489, 2-((2-(2-(6-(6-((6-acetyl-8-cyclopentyl-5-methyl-7-oxo-7,8-dihydropyrido[2,3-d]pyrimidin-2-yl)amino)pyridin-3-yl)-2,6-diazaspiro[3.3]heptan-2-yl)acetyl)-2-azaspiro[3.3]heptan-6-yl)amino)-N-(6-(dimethylamino)pyridazin-3-yl)-6-((methyl-d3)amino)nicotinamide], the IC50 (Calu-1 cells) is reported as at least 50 nM.

For `[2H]C([2H])([2H])Nc1ccc(C(=O)Nc2ccc(N(C)C)nn2)c(NC2CCN(C(=O)CN3CC4(C3)CN(c3ccc(Nc5ncc6c(C)c(C(C)=O)c(=O)n(C7CCCC7)c6n5)nc3)C4)CC2)n1` [CPD-490, 2-((1-(2-(6-(6-((6-acetyl-8-cyclopentyl-5-methyl-7-oxo-7,8-dihydropyrido[2,3-d]pyrimidin-2-yl)amino)pyridin-3-yl)-2,6-diazaspiro[3.3]heptan-2-yl)acetyl)piperidin-4-yl)amino)-N-(6-(dimethylamino)pyridazin-3-yl)-6-((methyl-d3)amino)nicotinamide], the IC50 (Calu-1 cells) was at least 50 nM.

Work on `CC(=O)c1c(C)c2cnc(Nc3ccc(CN4CCN(CC(=O)NCC5CC(Nc6nc(NC(C)C)ccc6C(=O)Nc6ccc(N(C)C)nn6)C5)CC4)cn3)nc2n(C2CCCC2)c1=O` (stereo not drawn) [CPD-493, 2-((3-((2-(4-((6-((6-acetyl-8-cyclopentyl-5-methyl-7-oxo-7,8-dihydropyrido[2,3-d]pyrimidin-2-yl)amino)pyridin-3-yl)methyl)piperazin-1-yl)acetamido)methyl)cyclobutyl)amino)-N-(6-(dimethylamino)pyridazin-3-yl)-6-(isopropylamino)nicotinamide] yielded an IC50 (Calu-1 cells) of at most 10 nM.

For `[2H]C([2H])([2H])Nc1ccc(C(=O)Nc2ccc(N(C)C)nn2)c(NC2CC(NC(=O)N3CCC(N4CCN(c5ccc(Nc6ncc7c(C)c(C(C)=O)c(=O)n(C8CCCC8)c7n6)nc5)CC4)C3)C2)n1` (stereo not drawn) [CPD-494, 2-((3-(3-(4-(6-((6-acetyl-8-cyclopentyl-5-methyl-7-oxo-7,8-dihydropyrido[2,3-d]pyrimidin-2-yl)amino)pyridin-3-yl)piperazin-1-yl)pyrrolidine-1-carboxamido)cyclobutyl)amino)-N-(6-(dimethylamino)pyridazin-3-yl)-6-((methyl-d3)amino)nicotinamide], the IC50 (Calu-1 cells) was at least 50 nM.

Work on `[2H]C([2H])([2H])Nc1ccc(C(=O)Nc2ccc(N(C)C)nn2)c(N[C@H]2CC[C@H](C(=O)N3CCN(Cc4ccc(Nc5ncc6c(C)c(C(C)=O)c(=O)n(C7CCCC7)c6n5)nc4)CC3)CC2)n1` [CPD-495, 2-((4-(4-((6-((6-acetyl-8-cyclopentyl-5-methyl-7-oxo-7,8-dihydropyrido[2,3-d]pyrimidin-2-yl)amino)pyridin-3-yl)methyl)piperazine-1-carbonyl)cyclohexyl)amino)-N-(6-(dimethylamino)pyridazin-3-yl)-6-((methyl-d3)amino)nicotinamide] yielded an IC50 (Calu-1 cells) of at least 50 nM.

Molecule `CC(=O)c1c(C)c2cnc(Nc3ccc(N4CCC5(CCN(CC(=O)NC67CC(Nc8nc(NC(C)C)ccc8C(=O)Nc8ccc(N(C)C)nn8)(C6)C7)C5)C4)cn3)nc2n(C2CCCC2)c1=O` (stereo not drawn) [CPD-496, 2-((3-(2-(7-(6-((6-acetyl-8-cyclopentyl-5-methyl-7-oxo-7,8-dihydropyrido[2,3-d]pyrimidin-2-yl)amino)pyridin-3-yl)-2,7-diazaspiro[4.4]nonan-2-yl)acetamido)bicyclo[1.1.1]pentan-1-yl)amino)-N-(6-(dimethylamino)pyridazin-3-yl)-6-(isopropylamino)nicotinamide] has an IC50 (Calu-1 cells) of at most 10 nM.

`CC(=O)c1c(C)c2cnc(Nc3ccc(CN4CC5(C4)CN(C(=O)CN4CC6(CC(Nc7nc(NC(C)C)ccc7C(=O)Nc7ccc(N(C)C)nn7)C6)C4)C5)cn3)nc2n(C2CCCC2)c1=O` [CPD-497, 2-((2-(2-(6-((6-((6-acetyl-8-cyclopentyl-5-methyl-7-oxo-7,8-dihydropyrido[2,3-d]pyrimidin-2-yl)amino)pyridin-3-yl)methyl)-2,6-diazaspiro[3.3]heptan-2-yl)-2-oxoethyl)-2-azaspiro[3.3]heptan-6-yl)amino)-N-(6-(dimethylamino)pyridazin-3-yl)-6-(isopropylamino) nicotinamide] showed an IC50 (Calu-1 cells) of at least 50 nM.

Molecule `CC(=O)c1c(C)c2cnc(Nc3ccc(CN4CC5(C4)CN(C(=O)CN4CCC(Nc6nc(NC(C)C)ccc6C(=O)Nc6ccc(N(C)C)nn6)CC4)C5)cn3)nc2n(C2CCCC2)c1=O` [CPD-498, 2-((1-(2-(6-((6-((6-acetyl-8-cyclopentyl-5-methyl-7-oxo-7,8-dihydropyrido[2,3-d]pyrimidin-2-yl)amino)pyridin-3-yl)methyl)-2,6-diazaspiro[3.3]heptan-2-yl)-2-oxoethyl)piperidin-4-yl)amino)-N-(6-(dimethylamino)pyridazin-3-yl)-6-(isopropylamino)nicotinamide] has an IC50 (Calu-1 cells) of at least 50 nM.
